Measured values published in ChEMBL document CHEMBL1137947, “Novel nevirapine-like inhibitors with improved activity against NNRTI-resistant HIV: 8-heteroarylthiomethyldipyridodiazepinone derivatives” (Bioorg Med Chem Lett, 2004).
pEC50, pIC50: −log10 of the molar value.

Assays:
[1] = test system: Human immunodeficiency virus 1; assay: Inhibitory activity against HIV-1 mutant strain K103N/Y181C; format: functional, organism-based
[2] = target: Human immunodeficiency virus type 1 reverse transcriptase (Human immunodeficiency virus 1, UniProt Q72547); assay: Inhibitory activity against wild type reverse transcriptase (WT RT) of HIV-1
[3] = test system: Human immunodeficiency virus 1; assay: Effective concentration against wild-type HIV-1; format: functional, organism-based
[4] = target: T1, Cytochrome P450 2C9 (Homo sapiens, UniProt P11712); assay: Inhibition of cytochrome P450 2C9; format: ADME
T1 sequence (P11712 whole entry): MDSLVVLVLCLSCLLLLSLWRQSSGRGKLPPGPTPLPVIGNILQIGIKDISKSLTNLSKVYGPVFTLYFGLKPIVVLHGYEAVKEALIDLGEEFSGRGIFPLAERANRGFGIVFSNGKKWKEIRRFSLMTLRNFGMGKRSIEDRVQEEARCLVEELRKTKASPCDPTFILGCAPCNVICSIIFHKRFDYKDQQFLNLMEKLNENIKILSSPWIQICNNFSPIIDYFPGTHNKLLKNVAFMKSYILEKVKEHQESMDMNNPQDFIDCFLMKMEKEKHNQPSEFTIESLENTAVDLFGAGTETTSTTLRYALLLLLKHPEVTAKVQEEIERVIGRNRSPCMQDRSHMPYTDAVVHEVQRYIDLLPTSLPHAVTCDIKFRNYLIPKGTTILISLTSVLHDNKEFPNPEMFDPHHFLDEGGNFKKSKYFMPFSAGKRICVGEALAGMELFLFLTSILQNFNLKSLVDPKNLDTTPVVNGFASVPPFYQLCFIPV

[5] = target: T2, Cytochrome P450 3A4 (Homo sapiens, UniProt P08684); assay: Inhibition of CYP450 (Cytochrome P450) 3A4 with fluorogenic substrate BFC; format: ADME
T2 sequence (P08684 whole entry): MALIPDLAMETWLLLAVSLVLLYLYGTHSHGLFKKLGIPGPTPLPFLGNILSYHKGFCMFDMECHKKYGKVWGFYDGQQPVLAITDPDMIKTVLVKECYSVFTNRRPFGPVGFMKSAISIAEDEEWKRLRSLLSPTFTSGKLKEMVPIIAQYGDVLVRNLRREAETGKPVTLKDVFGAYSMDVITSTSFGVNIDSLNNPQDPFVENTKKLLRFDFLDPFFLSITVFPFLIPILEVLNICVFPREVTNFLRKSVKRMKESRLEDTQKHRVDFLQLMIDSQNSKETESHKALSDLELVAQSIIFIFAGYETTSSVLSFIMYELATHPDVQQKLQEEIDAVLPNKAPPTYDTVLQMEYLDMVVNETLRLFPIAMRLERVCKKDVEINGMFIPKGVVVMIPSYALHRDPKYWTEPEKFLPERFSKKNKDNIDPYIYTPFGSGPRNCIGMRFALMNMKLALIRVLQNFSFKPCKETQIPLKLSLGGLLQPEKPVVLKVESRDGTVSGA

[6] = target: T2, Cytochrome P450 3A4; assay: Inhibition of CYP450 (Cytochrome P450) 3A4 with fluorogenic substrate BQ; format: ADME
[7] = Half-life for oxidative metabolic stability was determined using rat liver microsomes; format: ADME, Microsome
[8] = target: T3, Cytochrome P450 1A2 (Homo sapiens, UniProt P05177); assay: Inhibition of cytochrome P450 1A2; format: ADME
T3 sequence (P05177 whole entry): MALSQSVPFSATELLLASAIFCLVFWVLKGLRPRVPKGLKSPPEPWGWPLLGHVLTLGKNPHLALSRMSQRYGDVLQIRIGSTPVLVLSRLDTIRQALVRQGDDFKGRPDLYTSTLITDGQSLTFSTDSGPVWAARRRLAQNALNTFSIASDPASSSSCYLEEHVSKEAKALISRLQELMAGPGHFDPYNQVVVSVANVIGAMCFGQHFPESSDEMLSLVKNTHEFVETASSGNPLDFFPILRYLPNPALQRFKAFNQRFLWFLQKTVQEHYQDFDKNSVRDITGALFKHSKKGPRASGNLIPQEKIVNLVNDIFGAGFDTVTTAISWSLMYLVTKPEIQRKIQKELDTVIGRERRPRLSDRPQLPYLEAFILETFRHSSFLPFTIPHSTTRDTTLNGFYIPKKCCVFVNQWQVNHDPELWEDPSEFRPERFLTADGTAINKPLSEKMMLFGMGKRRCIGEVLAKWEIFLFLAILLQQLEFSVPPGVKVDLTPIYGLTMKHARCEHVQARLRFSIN

[9] = target: T4, Cytochrome P450 2D6 (Homo sapiens, UniProt P10635); assay: Inhibition of CYP450 (Cytochrome P450) 2D6; format: ADME
T4 sequence (P10635 whole entry): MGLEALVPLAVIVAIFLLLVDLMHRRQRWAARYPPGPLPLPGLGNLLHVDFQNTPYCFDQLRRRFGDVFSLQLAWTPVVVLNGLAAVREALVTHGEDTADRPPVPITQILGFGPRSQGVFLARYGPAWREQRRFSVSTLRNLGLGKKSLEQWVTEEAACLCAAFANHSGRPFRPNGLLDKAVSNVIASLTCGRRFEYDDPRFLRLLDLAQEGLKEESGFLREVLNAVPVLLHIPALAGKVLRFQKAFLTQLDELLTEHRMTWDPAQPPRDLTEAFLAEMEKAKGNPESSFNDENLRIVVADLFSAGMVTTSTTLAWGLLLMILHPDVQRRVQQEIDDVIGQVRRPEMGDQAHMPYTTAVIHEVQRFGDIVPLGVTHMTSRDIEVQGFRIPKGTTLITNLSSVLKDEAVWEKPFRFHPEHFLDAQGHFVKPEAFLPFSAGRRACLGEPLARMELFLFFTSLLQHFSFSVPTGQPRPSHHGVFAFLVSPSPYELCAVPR

[10] = test system: Human immunodeficiency virus 1; assay: Effective concentration against mutant K103N/Y181C of HIV-1; format: functional, organism-based
[11] = organism: Homo sapiens; assay: Half-life for oxidative metabolic stability was determined using male human; conditions: in vitro
[12] = target: Cytochrome P450 2C19 (Homo sapiens, UniProt P33261); assay: Inhibition of cytochrome P450 2C19; format: ADME
Cytochrome P450 2C19, sequence (P33261 whole entry): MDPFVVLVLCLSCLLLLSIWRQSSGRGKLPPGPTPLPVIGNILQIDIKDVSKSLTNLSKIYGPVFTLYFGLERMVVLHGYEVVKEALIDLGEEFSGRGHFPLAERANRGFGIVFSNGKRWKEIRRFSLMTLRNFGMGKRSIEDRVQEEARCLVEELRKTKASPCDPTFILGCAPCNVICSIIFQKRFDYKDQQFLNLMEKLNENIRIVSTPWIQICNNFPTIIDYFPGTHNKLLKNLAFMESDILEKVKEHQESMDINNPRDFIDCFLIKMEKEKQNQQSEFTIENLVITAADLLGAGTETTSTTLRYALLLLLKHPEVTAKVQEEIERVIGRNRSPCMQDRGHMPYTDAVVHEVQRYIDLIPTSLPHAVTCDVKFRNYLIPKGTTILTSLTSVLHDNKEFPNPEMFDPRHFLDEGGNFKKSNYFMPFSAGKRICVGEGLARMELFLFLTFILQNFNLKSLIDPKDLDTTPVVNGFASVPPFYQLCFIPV

[13] = Half-life consistent with the observed metabolic steady state in rats; format: ADME, organism-based; conditions: rat, in vivo
[14] = Bioavailability in rats was evaluated; format: ADME, organism-based; conditions: rat, in vivo; read-out: Bioavailabiility
[15] = Plasma clearance in rats; format: ADME, organism-based; conditions: rat
[16] = Maximum concentration was evaluated in rats; format: ADME, organism-based; conditions: rat, in vivo
[17] = target: T4, Cytochrome P450 2D6; assay: Inhibition of cytochrome P450 2D6; format: ADME
[18] = Volume of distribution at steady state was evaluated in rats; format: ADME, organism-based; conditions: rat, in vivo; read-out: Vss
[19] = target: T1, Cytochrome P450 2C9; assay: Inhibition of CYP450 (Cytochrome P450) 2C9; format: ADME
[20] = target: T3, Cytochrome P450 1A2; assay: Inhibition of CYP450 (Cytochrome P450) 1A2; format: ADME

SMILES	pIC50 [1]	pIC50 [2]	pEC50 [3]	pEC50 [10]	further results
CCN1c2ncc(CSc3ccncc3)cc2C(=O)N(C)c2ccc(Cl)nc21	7.59	8.52	9.51		
CCN1c2ncc(CSc3ccncc3)cc2C(=O)Nc2c(C)cc(Cl)nc21	7.10	8.66	9.32		
CCN1c2ncc(CSc3ccncc3C)cc2C(=O)Nc2c(C)cc(Cl)nc21	5.79	7.96	8.51		
CCN1c2ncc(CSc3cc(C)nc(C)c3)cc2C(=O)Nc2c(C)cc(F)nc21	6.92	8.16	9.00	7.68	pIC50 [4]: 5.35; pIC50 [5]: 5.60; pIC50 [6]: 5.00; half-life [7]: 5 min; pIC50 [8]: 4.59; pIC50 [9]: 4.57; half-life [11]: 5 min; pIC50 [12]: 5.27
CCN1c2ncc(CSc3cncnc3)cc2C(=O)Nc2c(C)cc(Cl)nc21	5.30	7.59	8.11		
CCN1c2ncc(CSc3ccnc(C)c3)cc2C(=O)Nc2c(C)cc(Cl)nc21	6.51	7.57	8.47		
CCN1c2ncc(CSc3cc(C)nc(C)c3)cc2C(=O)Nc2c(C)cc(Cl)nc21	7.22	8.15	8.92	7.85	pIC50 [4]: 5.59; half-life [13]: 90 min; pIC50 [5]: 5.64; pIC50 [6]: 5.09; bioavailability [14]: 76%; half-life [7]: 4 min; pIC50 [8]: 4.64; clearance [15]: 57 mL/min/kg; Cmax [16]: 800 nM; pIC50 [17]: 4.57; half-life [11]: 7 min; pIC50 [12]: 5.38; Vd [18]: 4.68 L/kg
Cc1cc(SCc2cnc3c(c2)C(=O)Nc2c(C)cc(Cl)nc2N3C2CC2)cc(C)n1	6.55	7.92	8.66	6.98	
CCN1c2ncc(CSc3nc(C)cc(C)n3)cc2C(=O)Nc2c(C)cc(Cl)nc21	6.49	8.22	8.82		
CCN1c2ncc(CSc3cc(C)nc(C)c3)cc2C(=O)Nc2c(C)ccnc21	6.77	8.38	9.34	7.92	pIC50 [5]: 5.80; pIC50 [6]: 5.00; half-life [7]: 9 min; pIC50 [9]: < 4.52; pIC50 [19]: 5.13; pIC50 [20]: < 4.52; half-life [11]: 9 min; pIC50 [12]: 4.59
CCN1c2ncc(CSc3nc4ccccc4o3)cc2C(=O)Nc2c(C)cc(Cl)nc21	6.64	8.10	8.57		
